# Test results: patent US7915245B2, “Methods and compositions of trail-death receptor agonists/activators” (The Board of Regents of the University of Texas System, priority 2007, dated 2011)
# Legend:
# [1] = system: prostate cancer LNCaP cells xenografted; test: LNCaP xenograft tumor growth; format: in vivo, Balb c nude mice; conditions: 40 mg/kg iv, 5 days per week
# Description: (§1) FIG. 28. […] LNCaP cells (2×10^6 cells as a 50% suspension in Matrigel, Becton Dickinson, Bedford, Mass., in a final volume of 0.1 ml) were injected subcutaneously in the right flank of Balb c nude mice. After tumor formation (about 100 mm^3), nude mice were treated (iv) with vehicle control (0.1 ml normal saline), and DRA9S (40 mg/kg, 0.1 ml volume) everyday 5 days per week throughout the duration of the experiment. Tumor volume was calculated using the equation: (volume=length×width×depth×0.5236 mm^3). Data represent mean±S.E.
# LNCaP cells (2×10^6 cells as a 50% suspension in Matrigel, Becton Dickinson, Bedford, Mass., in a final volume of 0.1 ml) were injected subcutaneously in the right flank of Balb c nude mice. After tumor formation (about 100 mm^3), nude mice were treated (iv) with vehicle control (0.1 ml normal saline), and DRA9S (40 mg/kg, 0.1 ml volume) everyday 5 days per week throughout the duration of the experiment. Tumor volume was calculated using the equation: (volume=length×width×depth×0.5236 mm^3). See, for example, FIG. 28. Data represent mean ±S.E.
# [2] = system: prostate cancer PC-3 cells xenografted; test: PC-3 xenograft tumor growth; format: in vivo, Balb c nude mice; conditions: 40 mg/kg iv, 5 days per week
# Description: as §1, with “26.” for “28.”, “PC-3” for “LNCaP”, “cells,” for “cells as a 50% suspension in Matrigel, Becton Dickinson, Bedford, Mass.,”, “saline), DRA11 (20 mg/kg, 0.1 ml volume), DRA11 (30 mg/kg, 0.1 ml volume),” for “saline),”, “DRA11” for “DRA9S”
# as §1, with “29.” for “28.”, “PC-3” for “LNCaP”, “(1×10^6 cells,” for “(2×10^6 cells as a 50% suspension in Matrigel, Becton Dickinson, Bedford, Mass.,”, “ml PBS)” for “ml)”, “Data represent mean±S.E.” left out
# PC-3 cells (2×10^6 cells, in a final volume of 0.1 ml) were injected subcutaneously in the right flank of Balb c nude mice. […] Tumor volume was calculated using the equation: (volume=length×width×depth×0.5236 mm^3). […]
# PC-3 cells (1×10^6 cells, in a final volume of 0.1 ml PBS) were injected subcutaneously in the right flank of Balb c nude mice. […] Tumor volume was calculated using the equation: (volume=length×width×depth×0.5236 mm^3). […]
# [3] = system: mesothelioma M33K cell line; test: XTT cell viability, mesothelioma M33K; format: cell-based; conditions: z-VAD-fmk 25 μM 2 h pretreatment, then DRA 72 h
# Description: FIG. 53. […] M33K cells were pretreated with either control peptide (10 μM) or pan caspase inhibitor (z-VAD-fink, 25 μM) for 2 h, followed by treatment with various doses of DRA11, DRA9 and DRA9S for 72 h. At the end of incubation, cell viability was measured by XTT assay. Data represent the mean±S.D.
# XTT Assay. Cells (1×10^4 cells per well) were seeded in 96-well plates (flat bottom), and treated with death receptor agonists/activators/small molecules in the presence or absence of TNF-related apoptosis inducing ligand (TRAIL). Plates were incubated for various time points at 37° C. and 5% CO2. Before the end of the experiment, 50 μl XTT (sodium 3′[1-(phenylaminocarbonyl)-3,4-tetrazolium]-bis(4-methoxy-6-nitro) benzene sulfonic acid hydrate) labeling mixture (final concentration, 125 μM sodium XTT and 25 μM PMS) per well was added and plates were incubated for a further 4 h at 37° C. and 5% CO2. The spectrophotometric absorbance of the sample was measured using a microtitre plate (ELISA) reader. The wavelength to measure absorbance of the formazan product was 450 nm, and the reference wavelength was 650 nm.
Structure (SMILES),growth of xenografted LNCaP tumors (tumor volume) [1],growth of xenografted PC-3 tumors (tumor volume) [2],effect of pan caspase inhibitor (z-VAD-fmk) on the inhibitory effect on cell viability [3]
CCOc1cc(Br)c(Br)c(/C=N/c2cccc(C(=O)O)c2C)c1O [DRA9S],inhibits growth,inhibits growth,–
CCOc1cc(Br)c(Br)c(/C=N/c2cccc(C(=O)O)c2)c1O [DRA9],–,–,blocks the inhibitory effects
